{"source": "patent US20120165409A1", "about": "“WRINKLE-IMPROVING AGENT” (SHISEIDO COMPANY, LTD., priority 2005, published 2012)", "key": {"[1]": {"test_system": "Hr-1 (Skh-1) hairless mice", "assay": "Tests of wrinkle improvement on hairless mice (UVB-induced wrinkles)", "assay_type": "in vivo", "conditions": "3% sample solution in 50% ethanol, 100 μL on back skin once a day, five times a week, versus solvent (50% ethanol), FIG. 1, statistically significant", "excerpt": "Wrinkles were formed on Hr-1 (Skh-1) hairless mice (age 6 to 10 weeks) according to a partly modified version of the method of Schwartz et al. (see Haratake A. et al. J. Invest. Dermatol., 108, 769-775, 1997), in which the mice were repeatedly irradiated with UVB (see Naganuma M. et al. J. Dermatol. Sci., 25, 29-35, 2001; Schwartz E. J. Invest. Dermatol. 91, 158-161, 1988). Specifically, the backs [of the mice] were irradiated with UVB (light source: Toshiba FL-20 SE fluorescent lamp, made by Toshiba Electric) three times a week for ten weeks. The amount of irradiation after the treatment commenced was 36 mJ/cm^2/irradiation. […] The total irradiation amount was 4.6 J/cm^2. Values for the amount of ultraviolet light were measured used a UV radiometer (UVR-305/365D(II), [made by] Topcon). [After] irradiation with ultraviolet light was completed, photographs were taken of the backs of the mice, and the degree of wrinkle generation was scored according to the wrinkle evaluation standards given below using a partially modified version of the method of Bissett et al. (see Bissett, D. L., et al. Photochemistry and Photobiology, 46, 367-378, 1987). Scores of 0, 2, 4, 6, and 8 were used as standard values, and 1, 3, 5, and 7 were used as intermediate scores. […]\nThe degree of wrinkle improvement of the mice was determined in the following manner. […]"}, "[2]": {"test_system": "healthy male panelists having a large number of wrinkles", "assay": "Tests of improvement in wrinkles that form in the corners of the eyes (half-face blind test, replica analysis and survey)", "assay_type": "in vivo", "conditions": "2.5 mass % in face lotion, human eye corners", "description": "Face lotions (an example and a comparative example) having the compositions given below were applied three times a day using the half-face method (blind tests) to the faces of healthy male panelists having a large number of wrinkles.\nReplicas of the eye corner portions to which lotion was applied were acquired using a SILFLO [apparatus] (Flexico Development Ltd.). The proportion of wrinkle area and the proportion of wrinkle volume were determined for before the application of the face lotion (0 M), after one month of application (1 M), and after two months of application (2 M). […] Both the wrinkle area proportion and the wrinkle volume proportion were determined by analyzing the replicas using a wrinkle-measuring apparatus employing a laser-cutting method (see Japanese Laid-Open Patent Application No. 7-113623).\nThe results of a survey concerning “Impressions of the Effectiveness of Wrinkle Improvement” sent to 23 test subjects are shown in Table 1."}}, "data": [{"molecule": "O=C(O)CCNC(=O)c1ccccc1", "note": "[N-benzoyl-β-alanine]", "values": [{"measurement": "degree of wrinkle improvement (score before sample application − score after five weeks of sample application)", "setting": "[1]", "value": "reduction in wrinkles dramatically accelerated"}, {"measurement": "wrinkle-improving effect (overall conclusion of Example 2)", "setting": "[2]", "value": "had a wrinkle-improving effect"}]}]}
